According to US20230329993A1, “PERSONAL CLEANSING COMPOSITION FREE OF ALKYL SULFATE OR ALKYL ETHER SULFATE TYPE OF SURFACTANTS” (The Procter & Gamble Company, priority 2022, published 2023):

Assay: Cone/Plate Viscosity Measurement
Format: physicochemical
Conditions: composition such as C. Ex. 1; thickener level not stated
Method: The viscosity of the personal cleansing composition is measured by a Cone/Plate Brookfield DV12T, by Brookfield Engineering Laboratories, Stoughton, MA. The cone used (Spindle CPA-41z) has a diameter of […] and 3° angle. The viscosity is determined using a steady state flow experiment at constant shear rate of 2 s^−1 and at temperature of 26.5° C. The sample size is 2.5 mL.

cocamide MEA
Effect of a thickener on enhancing the viscosity of a personal cleansing composition: good response
